Results reported in patent US20120058936A1, “COMPOSITIONS AND METHODS FOR ELIMINATION OF GRAM NEGATIVE BACTERIA” (ASSISTANCE PUBLIQUE - HOPITAUX DE PARIS, priority 2009, published 2012).
“Also recorded” adds a separate entry of the source.

Assays:
[1] = test system: enterobacteria present in the colon; conditions: oral treatment; azithromycin daily dose of 500 mg; cited from earlier work
[2] = BioDis (USP III) release test in simulated human gastrointestinal fluids; assay type: physicochemical; conditions: Biodiss system; successively soaked in simulated gastric, proximal jejunum, late jejunum, ileum and colon fluids (FIG. 2)
Procedure: In a particular embodiment, the intermediate coating is selected in order to achieve a delayed and/or controlled release of the antibacterial, as measured by in vitro testing such as BioDis dissolution tester (USP III release apparatus). In this system, the dosage form is successively placed into glass tubes (filled with approx 200 mL of dissolution media) corresponding to the different sections of the gastrointestinal tract, such as described by Fotaki and Coll, in European Journal of Pharmaceutics and Biopharmaceutics 73 (2009) 115-120. This allows a good simulation of in vivo release before testing into mammals. pH, fed state and various other physiological conditions can be tested. Using the BioDis system, it is possible for those skilled in the art to finely tune the formulation to achieve a desired pre-determined delayed release. It will be understood that this method is also useful for testing any kind of drug delivery system intended to deliver the antimicrobial(s) in a desired part of the intestine.
Legend: FIG. 1: Release of azithromycine in simulated human gastrointestinal tract using a Biodis system. The azithromycin cellet formulation, coated with 35% FS30D (Batch GL-058B4), is successively soaked into simulated fluids such as gastric, proximal jejunum, late jejunum, Ileum and colon. […]

[3] = test system: erythrocyte; conditions: MIC for many bacteria; cited from earlier work

CC[C@H]1OC(=O)[C@H](C)[C@@H](O[C@H]2C[C@@](C)(OC)[C@@H](O)[C@H](C)O2)[C@H](C)[C@@H](O[C@@H]2O[C@H](C)C[C@H](N(C)C)[C@H]2O)[C@](C)(O)C[C@@H](C)CN(C)[C@H](C)[C@@H](O)[C@]1(C)O [Azithromycin]
elimination of enterobacteria from the colon [1]: effective to eliminate Gram-negative enterobacteria from the colon

CC[C@H]1OC(=O)[C@H](C)[C@@H](O[C@H]2C[C@@](C)(OC)[C@@H](O)[C@H](C)O2)[C@H](C)[C@@H](O[C@@H]2O[C@H](C)C[C@H](N(C)C)[C@H]2O)[C@](C)(O)C[C@@H](C)C(=O)[C@H](C)[C@@H](O)[C@]1(C)O [erythromycin]
elimination of enterobacteria from the colon [1]: eliminated from the lumen

colistin
Release of colistin in simulated human gastrointestinal tract [2]: improves the release of colistin; also recorded: prevent from total colistin release

gramicidin S
concentration causing erythrocyte lysis relative to the MIC [3]: threefold higher than the MIC
